Active and inactive are the calls of the source.
How the values were obtained:
[1] = system: Mus musculus; assay: Anti-necroptosis activity against TNFalpha-induced C57BL/6 mouse model of systemic inflammatory response syndrome assessed as reduction in IL-1 beta level administered IG pretreated for 1 hr followed by TNFalpha stimulation for 2 hrs; format: functional, organism-based; conditions: dose 10-40 mg/kg, time 3.0 hrs, DDE = dose-dependent effect
[2] = organism: Mus musculus; assay: Antialzheimer activity against STZ induced C57BL/6 mouse model of cognitive dysfunction assessed as decrease of TNF-alpha expression in frontal cortex; format: functional, organism-based
[3] = organism: Mus musculus; assay: Antialzheimer activity against STZ induced C57BL/6 mouse model of cognitive dysfunction assessed as decrease of TNF-alpha expression in hippocampus; format: functional, organism-based
[4] = target: T1, Receptor-interacting serine/threonine-protein kinase 1 (Homo sapiens) (UniProt Q13546); assay: Inhibition of RIPK1 in human HT-29 cells assessed as reduction in TSZ induced necroptosis at 25 to 50 nM pretreated with compound followed by TSZ stimulation for 8 hrs by celltiter-glo luminescent cell viability assay relative to control; format: cell-based; conditions: dose 25-50 nM
T1 sequence (whole entry): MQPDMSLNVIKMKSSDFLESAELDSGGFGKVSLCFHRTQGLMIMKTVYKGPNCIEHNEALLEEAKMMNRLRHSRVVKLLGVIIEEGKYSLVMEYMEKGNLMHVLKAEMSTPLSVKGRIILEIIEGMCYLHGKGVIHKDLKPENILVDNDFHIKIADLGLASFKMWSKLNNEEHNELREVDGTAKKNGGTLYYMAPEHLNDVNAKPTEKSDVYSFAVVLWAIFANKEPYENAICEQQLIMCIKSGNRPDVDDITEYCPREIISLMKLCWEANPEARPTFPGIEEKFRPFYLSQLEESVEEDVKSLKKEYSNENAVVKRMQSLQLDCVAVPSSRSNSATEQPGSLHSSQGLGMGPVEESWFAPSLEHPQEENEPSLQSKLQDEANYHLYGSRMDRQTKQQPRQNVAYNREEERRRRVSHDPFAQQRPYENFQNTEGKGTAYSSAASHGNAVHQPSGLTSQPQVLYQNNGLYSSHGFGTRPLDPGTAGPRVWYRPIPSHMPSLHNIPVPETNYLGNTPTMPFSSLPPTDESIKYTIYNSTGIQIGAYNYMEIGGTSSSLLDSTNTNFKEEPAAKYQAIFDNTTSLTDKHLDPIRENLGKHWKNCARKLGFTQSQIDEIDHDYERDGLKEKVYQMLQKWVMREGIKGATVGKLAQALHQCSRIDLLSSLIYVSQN

[5] = organism: Mus musculus; assay: Antialzheimer activity against STZ induced C57BL/6 mouse model of cognitive dysfunction assessed as downregulation of IL-1 beta in frontal cortex; format: functional, organism-based
[6] = Toxicity in C57BL/6 mouse assessed as effect on spleen by H and E staining based analysis; format: tissue-based; conditions: in vivo
[7] = Cytotoxicity against mouse primary neurons assessed as reduction in cell viability at 0.256 to […] by celltiter-glo luminescent cell viability assay; format: toxicity, cell-based; conditions: neuron, dose 0.256-[…]
[8] = Toxicity in C57BL/6 mouse assessed as effect on heart by H and E staining based analysis; format: tissue-based; conditions: in vivo
[9] = system: HT-29; assay: Inhibition of RIPK1 expression in TSZ induced human HT-29 cells at 1 uM pretreated with compound followed by TSZ stimulation upto 6 hrs by immunoblotting analysis; format: functional, cell-based
[10] = Cytotoxicity against human HT-29 cells assessed as reduction in cell viability by celltiter-glo luminescent cell viability assay; format: toxicity, cell-based
[11] = system: Mus musculus; assay: Antialzheimer activity against STZ induced C57BL/6 mouse model of cognitive dysfunction assessed as reduction in latency at 1 mg/kg, IG administered once daily for 7 days; format: functional, organism-based; conditions: time 7.0 day
[12] = system: Mus musculus; assay: Antialzheimer activity against STZ induced C57BL/6 mouse model of cognitive dysfunction assessed as increase in percentage of quadrant time at 1 mg/kg, IG administered once daily for 7 days; format: functional, organism-based; conditions: time 7.0 day
[13] = target: T1, Receptor-interacting serine/threonine-protein kinase 1 (Homo sapiens); assay: Inhibition of RIPK1 in human HT-29 cells assessed as reduction in TSZ induced necroptosis pretreated with compound followed by TSZ stimulation for 8 hrs by celltiter-glo luminescent cell viability assay; format: cell-based; conditions: dose 0.4-50 nM, DDE = dose-dependent effect
[14] = organism: Mus musculus; assay: Antialzheimer activity against STZ induced C57BL/6 mouse assessed as decrease in p-RIPK1/RIPK1 ratio in frontal cortex; format: functional, organism-based
[15] = system: Mus musculus; assay: Antialzheimer activity against STZ induced C57BL/6 mouse model of cognitive dysfunction assessed as increase in central distance of mouse at 1 mg/kg, IG administered once daily for 7 days; format: functional, organism-based; conditions: time 7.0 day
[16] = system: HT-29; assay: Anti-necroptotic activity in TSZ induced human HT-29 cells assessed as increase in cell viability pretreated with compound followed by TSZ stimulation and measured after 16 hrs by celltiter-glo luminescent cell viability assay; format: functional, cell-based
[17] = system: Mus musculus; assay: Anti-necroptosis activity against TNFalpha-induced C57BL/6 mouse model of systemic inflammatory response syndrome assessed as reduction in IL-6 level administered IG pretreated for 1 hr followed by TNFalpha stimulation for 2 hrs; format: functional, organism-based; conditions: dose 10-40 mg/kg, time 3.0 hrs, DDE = dose-dependent effect
[18] = system: Mus musculus; assay: Antialzheimer activity against STZ induced C57BL/6 mouse model of cognitive dysfunction assessed as increase in quadrant time at 1 mg/kg, IG administered once daily for 7 days; format: functional, organism-based; conditions: time 7.0 day
[19] = target: T2, Receptor-interacting serine/threonine-protein kinase 3 (Homo sapiens, UniProt Q9Y572); assay: Binding affinity to recombinant human wild type partial length RIPK3 (M1 to Q307 residues) expressed in bacterial expression system by KINOMEscan TM assay
Target sequence in this assay (Q9Y572 whole entry, the tested form may be a part): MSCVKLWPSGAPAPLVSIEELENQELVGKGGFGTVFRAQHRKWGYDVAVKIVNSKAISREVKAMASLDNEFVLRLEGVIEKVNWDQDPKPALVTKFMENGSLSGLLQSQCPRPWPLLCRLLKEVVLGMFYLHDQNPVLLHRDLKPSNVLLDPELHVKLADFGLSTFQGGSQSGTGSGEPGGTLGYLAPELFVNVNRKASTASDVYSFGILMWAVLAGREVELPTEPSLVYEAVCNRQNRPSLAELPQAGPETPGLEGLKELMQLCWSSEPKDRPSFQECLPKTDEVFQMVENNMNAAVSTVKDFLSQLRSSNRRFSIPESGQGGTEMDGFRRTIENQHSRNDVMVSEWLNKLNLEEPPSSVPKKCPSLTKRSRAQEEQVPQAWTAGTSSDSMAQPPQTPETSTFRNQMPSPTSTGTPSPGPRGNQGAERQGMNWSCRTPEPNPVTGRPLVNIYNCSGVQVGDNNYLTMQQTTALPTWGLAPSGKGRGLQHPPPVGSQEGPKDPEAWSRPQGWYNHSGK

[20] = target: T3, Receptor-interacting serine/threonine-protein kinase 1 (Homo sapiens, UniProt Q13546); assay: Binding affinity to recombinant human wild type partial length RIPK1 (M1 to K305 residues) expressed in bacterial expression system by KINOMEscan TM assay
T3 sequence (Q13546 whole entry): T1 sequence (whole entry)

[21] = organism: Mus musculus; assay: Antialzheimer activity against STZ induced C57BL/6 mouse assessed as decrease in p-RIPK3/RIPK3 ratio in hippocampus; format: functional, organism-based
[22] = target: T1, Receptor-interacting serine/threonine-protein kinase 1 (Homo sapiens); assay: Inhibition of RIPK1 phosphorylation in TSZ induced human HT-29 cells at 1 uM pretreated with compound followed by TSZ stimulation upto 6 hrs by immunoblotting analysis relative to control; format: cell-based
[23] = system: Mus musculus; assay: Anti-necroptosis activity against TNFalpha-induced C57BL/6 mouse model of systemic inflammatory response syndrome assessed as protection against hypothermia at 20 to 40 mg/kg, IG pretreated for 1 hr followed by TNFalpha stimulation relative to control; format: functional; conditions: dose 20-40 mg/kg
[24] = organism: Mus musculus; assay: Antialzheimer activity against STZ induced C57BL/6 mouse model of cognitive dysfunction assessed as decrease in p-Tau level in hippocampus by Western blot analysis; format: functional, organism-based
[25] = organism: Mus musculus; assay: Antialzheimer activity against STZ induced C57BL/6 mouse model of cognitive dysfunction assessed as downregulation of IL-1 beta in hippocampus; format: functional, organism-based
[26] = Toxicity in C57BL/6 mouse assessed as effect on liver by H and E staining based analysis; format: tissue-based; conditions: in vivo
[27] = system: Mus musculus; assay: Antialzheimer activity against STZ induced C57BL/6 mouse model of cognitive dysfunction assessed as increase in number of active avoidance time at 1 mg/kg, IG administered once daily and measured for 4 days by active avoidance test; format: functional, organism-based; conditions: time 4.0 day
[28] = target: T2, Receptor-interacting serine/threonine-protein kinase 3; assay: Inhibition of RIPK3 phosphorylation in TSZ induced human HT-29 cells at 1 uM pretreated with compound followed by TSZ stimulation upto 6 hrs by immunoblotting analysis; format: cell-based
Target sequence in this assay (Q9Y572 whole entry, looked up, the tested form may be a part): as the sequence (Q9Y572 whole entry, the tested form may be a part) above

[29] = organism: Mus musculus; assay: Antialzheimer activity against STZ induced C57BL/6 mouse model of cognitive dysfunction assessed as decrease in p-Tau level in frontal cortex by Western blot analysis; format: functional, organism-based
[30] = system: Mus musculus; assay: Antialzheimer activity against STZ induced C57BL/6 mouse model of cognitive dysfunction assessed as increase in preference index at 1 mg/kg, IG administered once daily for 7 days by novel object recognition test; format: functional, organism-based; conditions: time 7.0 day
[31] = organism: Mus musculus; assay: Antialzheimer activity against STZ induced C57BL/6 mouse assessed as decrease in p-RIPK3/RIPK3 ratio in frontal cortex; format: functional, organism-based
[32] = target: T1, Receptor-interacting serine/threonine-protein kinase 1 (Homo sapiens); assay: Inhibition of RIPK1 in human HT-29 cells assessed as reduction in TCZ induced necroptosis at 0.2 to 25 nM pretreated with compound followed by TCZ stimulation for 16 hrs by celltiter-glo luminescent cell viability assay; format: cell-based; conditions: dose 0.2-25 nM
[33] = target: T4, Mixed lineage kinase domain-like protein (Homo sapiens) (UniProt Q8NB16); assay: Inhibition of MLKL phosphorylation in TSZ induced human HT-29 cells at 1 uM pretreated with compound followed by TSZ stimulation upto 6 hrs by immunoblotting analysis; format: cell-based
T4 sequence (whole entry): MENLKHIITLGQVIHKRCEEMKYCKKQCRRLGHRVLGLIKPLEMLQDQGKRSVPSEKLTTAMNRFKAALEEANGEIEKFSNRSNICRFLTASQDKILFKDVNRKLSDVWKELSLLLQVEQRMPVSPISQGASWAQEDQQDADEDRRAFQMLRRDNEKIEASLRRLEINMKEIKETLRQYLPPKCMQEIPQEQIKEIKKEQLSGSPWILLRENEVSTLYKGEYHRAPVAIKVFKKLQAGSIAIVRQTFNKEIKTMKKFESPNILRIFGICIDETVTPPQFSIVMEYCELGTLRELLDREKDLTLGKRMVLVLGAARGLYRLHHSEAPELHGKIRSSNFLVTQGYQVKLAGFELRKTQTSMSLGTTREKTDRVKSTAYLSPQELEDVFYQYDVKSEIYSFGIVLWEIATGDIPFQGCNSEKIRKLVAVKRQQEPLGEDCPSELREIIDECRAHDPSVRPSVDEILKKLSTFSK

[34] = organism: Mus musculus; assay: Antialzheimer activity against STZ induced C57BL/6 mouse model of cognitive dysfunction assessed as restoration of hippocampal cell number by Nissl staining based analysis; format: functional, organism-based
[35] = target: T5, Receptor-interacting serine/threonine-protein kinase 1 (Mus musculus) (UniProt Q60855); assay: Inhibition of RIPK1 in mouse L929 cells assessed as reduction in TZ induced necroptosis pretreated with compound followed by TZ stimulation for 4 hrs by celltiter-glo luminescent cell viability assay; format: cell-based; conditions: dose 0.000781-0.025 µM, DDE = dose-dependent effect
T5 sequence (whole entry): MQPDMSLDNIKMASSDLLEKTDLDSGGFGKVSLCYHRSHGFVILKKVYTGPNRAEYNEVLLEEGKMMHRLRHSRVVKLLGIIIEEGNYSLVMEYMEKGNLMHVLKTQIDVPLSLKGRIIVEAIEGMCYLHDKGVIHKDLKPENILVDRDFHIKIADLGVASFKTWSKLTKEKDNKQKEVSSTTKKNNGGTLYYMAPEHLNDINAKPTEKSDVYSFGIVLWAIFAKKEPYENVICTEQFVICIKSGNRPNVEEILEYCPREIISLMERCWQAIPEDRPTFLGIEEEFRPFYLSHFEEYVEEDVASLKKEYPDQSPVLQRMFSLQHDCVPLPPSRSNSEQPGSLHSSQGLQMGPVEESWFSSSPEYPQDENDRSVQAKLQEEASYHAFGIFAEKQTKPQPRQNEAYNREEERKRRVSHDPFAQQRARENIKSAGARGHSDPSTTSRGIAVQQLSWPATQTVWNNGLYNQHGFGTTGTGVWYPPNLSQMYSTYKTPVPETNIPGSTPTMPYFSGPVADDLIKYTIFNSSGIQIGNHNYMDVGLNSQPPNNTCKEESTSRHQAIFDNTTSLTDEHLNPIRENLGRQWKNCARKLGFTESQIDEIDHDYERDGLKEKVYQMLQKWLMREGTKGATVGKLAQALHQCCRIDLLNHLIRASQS

[36] = Toxicity in C57BL/6 mouse assessed as effect on lungs by H and E staining based analysis; conditions: in vivo
[37] = organism: Mus musculus; assay: Antialzheimer activity against STZ induced C57BL/6 mouse model of cognitive dysfunction assessed as restoration of hippocampal morphology by Nissl staining based analysis; format: functional, organism-based
[38] = organism: Mus musculus; assay: Antialzheimer activity against STZ induced C57BL/6 mouse assessed as decrease in p-RIPK1/RIPK1 ratio in hippocampus; format: functional, organism-based
[39] = Toxicity in C57BL/6 mouse assessed as effect on kidney by H and E staining based analysis; format: tissue-based; conditions: in vivo
[40] = system: HT-29; assay: Inhibition of TSZ induced RIPK1-RIPK3 necrosome formation in human HT-29 cells at 1 uM measured after 6 hrs by immunoblot analysis; format: functional, cell-based
[41] = system: Mus musculus; assay: Antialzheimer activity against STZ induced C57BL/6 mouse model of cognitive dysfunction assessed as prolonged exploration time for new objects at 1 mg/kg, IG administered once daily for 7 days by novel object recognition test; format: functional, organism-based; conditions: time 7.0 day

O=C1CC(C(=O)Nc2nc3cc(Oc4ccc(F)c(NC(=O)Cc5cccc(OC(F)(F)F)c5)c4)c(F)cc3s2)C1
2 nM: EC50 [16]
8.6 nM: Kd [20]
> 50000 nM: CC50 [10]
100%: inhibition [4] | inhibition [22] | Activity [23]
> 5000 nM: Kd [19]
active: Activity [1] Dde | Activity [2] | Activity [3] | Activity [5] | inhibition [9] | Activity [11] | Activity [12] | inhibition [13] Dde | Activity [14] | Activity [15] | Activity [17] Dde | Activity [18] | Activity [21] | Activity [24] | Activity [25] | Activity [27] | inhibition [28] | Activity [29] | Activity [30] | Activity [31] | inhibition [32] | inhibition [33] | Activity [34] | Activity [35] Dde | Activity [37] | Activity [38] | inhibition [40] | Activity [41]
Non-Toxic: Activity [6] | Activity [7] | Activity [8] | Activity [26] | Activity [36] | Activity [39]

From ChEMBL document CHEMBL5096222, “Discovery of a Trifluoromethoxy Cyclopentanone Benzothiazole Receptor-Interacting Protein Kinase 1 Inhibitor as the Treatment for Alzheimer's Disease” (J Med Chem, 2022)
